Measured values as given in patent US20180078576A1, “SULPHATED XYLANS FOR TREATMENT OR PROPHYLAXIS OF RESPIRATORY DISEASES” (Paradigm Biopharmaceuticals Limited, priority 2007, published 2018).

Key:
Assay type in all cases: cell-based
human IL-8 = target: T1, human IL-8 (Homo sapiens, UniProt P10145); assay: IL-8 induced migration of DMSO treated HL-60 cells (chemotaxis); conditions: 50 μg/ml, IL-8 20 ng/ml
T1 sequence (P10145 21-99): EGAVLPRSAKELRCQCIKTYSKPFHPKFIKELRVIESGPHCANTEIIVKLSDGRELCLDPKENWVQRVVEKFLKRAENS
Procedure: Chemokines known to play an important role in mediating the inflammation associated with COPD include IL-8, MCP-1 and MIP-1α (Barnes 2004, supra). […] These experiments were performed using DMSO treated human promyelocytic HL-60 cells. These cells were derived from a patient with acute promyelocytic leukemia. The cells were treated with DMSO (1.2%) for 4 days before being used in the experiments. The chemotaxis assays were performed in 96-well Costar chemotaxis plates consisting of a bottom chamber to which was added the human IL-8 (+/−inhibitor) and then cells in RPMI and 1% v/v FCS were added to a top chamber and the plate was incubated at 37° C. for 1 hour to allow cells to move from the top chamber into the bottom. The number of cells migrating into the bottom chamber was quantified by labeling with AQUEOUS ONE (20 μl/well) for 1.75 hours before absorbance at 490 nm is read. IL-8 was used at a final concentration of 20 ng/ml and the inhibitors were the sulfated xylan pentasaccharide (10 and 50 μg/ml) and pentosan polysulfate (10 and 50 μg/ml). Cell migration is compared with that seen with no IL-8 or with IL-8 and no inhibitor.

[1] = target: recombinant human IL-2 (rhIL-2) (Homo sapiens, UniProt P60568); assay: IL-2 dependent CTL-Luc cell proliferation
Excerpt: The murine cytotoxic T lymphocytic line (CTLL) is a subclone of T cells derived from a C57bl/6 mouse. The cells require interleukin-2 (IL-2) for growth and are used to assay for its presence in conditioned media. The cells are responsive to both murine and human IL-2. CTLL cells have been transfected with the firefly luciferase gene contained in the expression vector, pPGK-puromycin-luciferase (Coombe et al, 1998, supra). The positive transfectants are cloned to produce a line with good luciferase expression and these cells are called CTL-Luc. The proliferation assays are carried out in 96-well microplates suitable for such assays (Falcon). […] The cells are counted with a Coulter Z2 Particle Counter and Size Analyzer (Coulter Electronics, England) and routinely 1.6×10^4 cells are added to microplate wells that contain either no recombinant human IL-2 (rhIL-2) (negative control) or various dilutions of rhIL-2. When the effect of PPS, or other sulfated polysaccharides is to be measured, the wells also contain various concentrations of these molecules.
The CTL-Luc cells proliferate for 24 hours at 37° C. in a humidified atmosphere, after which the luciferase activity is measured by the addition of 50 μl of luciferase substrate buffer (50 mM Tris-HCl, pH 7.8, 15 mM MgSO4, 33.3 mM DTT, 0.1 mM EDTA, 0.5 mM Na-luciferin, 0.5 mM ATP, 0.25 mM lithium Co A and 0.5% v/v Triton X-100). […]

IL-13 = IL-13 (Homo sapiens, UniProt P35225); assay: IL-13 dependent proliferation of TF-1 cells
Excerpt: IL-13 is a cytokine with a key role in asthma and allergic disease (including allergic rhinitis) and it seems particularly important in […] the airway hyperreactivity seen with asthma (Wills-Karp, Immunol. Rev. 202:175-190, 2004). […] Pentosan polysulfate (PPS) and a DP5 sulfated xylan inhibited the proliferation of a human IL-13 responsive cell line. This occurs at very low doses and is not due to a toxic effect of the PPS because other, similarly sulfated polysaccharides, at the same concentrations of IL-13 and polysaccharide have no effect. These experiments utilize the TF-1 cells. TF-1 cells were originally established from a bone marrow sample from a person with severe pancytopenia. […]
The proliferation assays are carried out in 96-well microplates suitable for such assays (Falcon). […] The cells are counted with a Coulter Z2 Particle Counter and Size Analyzer (Coulter Electronics, England) and routinely 2.5×10^4 cells are added to microplate wells that contain either no IL-13 (negative control) or various dilutions of IL-13. When the effect of PPS is to be measured, the wells also contain various concentrations of this molecule. The cells proliferate for 48 hours at 37° C. in a humidified atmosphere, after which the number of cells present is quantified by staining with the AQUEOUS ONE dye (30 μl/well) for 3 hours and then absorbance is read at 490 nm.

Chain of IL-13 (P35225 25-146): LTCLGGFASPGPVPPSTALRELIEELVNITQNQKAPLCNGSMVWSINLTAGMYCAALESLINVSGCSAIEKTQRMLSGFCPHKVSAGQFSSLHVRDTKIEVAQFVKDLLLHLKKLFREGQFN
Chain of recombinant human IL-2 (rhIL-2) (P60568 21-153): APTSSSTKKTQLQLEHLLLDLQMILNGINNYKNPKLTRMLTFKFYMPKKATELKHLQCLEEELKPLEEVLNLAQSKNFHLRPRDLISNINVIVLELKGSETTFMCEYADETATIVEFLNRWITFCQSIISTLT

Inhibition of cell migration triggered by IL-8 (human IL-8): 74% | Effect on proliferation of CTL-Luc cells obtained with rhIL-2 ([1]; 10 μg/ml or 1 μg/ml, rhIL-2 1.25 ng/ml, FIG. 9): no effect | Inhibition of IL-13 dependent proliferation of TF-1 cells (in words) (IL-13; FIG. 16, IL-13 2.5 ng/ml): markedly inhibit | IL-13 mediated cell proliferation blocked (IL-13; PPS concentrations of 5-10 μg/ml, TF-1 cells, 48 hours): 75-80%
Substance: Pentosan polysulfate [PPS]
Toxicity to cytokine dependent lymphocytic cell lines ([1]; IL-2 and GM-CSF responsive cell lines, 10 and 1 μg/ml): not toxic
